Literature values as cited in US11773111B1, “Selective 5-LO inhibitors for the treatment of bronchial asthma” (KING FAISAL UNIVERSITY, priority 2022, dated 2023).

How the values were obtained:
[1] = not given; remark: listed apart in the source
[2] = clinical use

CC(c1cc2ccccc2s1)N(O)C(N)=O (stereo not drawn) [Zileuton]
serum half-life: 3 h
plasma protein binding [1]: 93%
undesirable side effects [2]: hepatoxicity
